US6355799B1, “Substituted benzene compounds, process for their preparation, and herbicidal and defoliant compositions containing them” (ISK Americas Incorporated, priority 1997, dated 2002)

Key:
Assay type in all cases: in vivo
[1] = system: redroot pigweed (Amaranthus retroflexus, AMARE); experiment: Pre-emerge test, greenhouse herbicide activity screening; conditions: phytotoxicity rating 0-100, 14 days after application
Outline: (§1)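 Plants grown in 10 cm pots of sandy loam mix received acetone-dissolved compounds through a moving flat-fan nozzle. Doses ranged from 15 to 1000 g ai/ha. Pre-emerge pots were seeded one day earlier, post-emerge pots 8–21 days earlier. Fourteen days on, each pot was graded 0–100 for damage.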

[2] = system: upland rice (Oryza sp., var. Tebonnet, RICE); experiment: Post-emerge test, crop safety; conditions: post-emerge, 14 days after application, rating scale 0-100
Outline: (§2)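 Fourteen days after spraying, crop and weed injury was graded visually from 0, no effect, to 100, every plant dead. Test substances were dissolved in acetone and applied at 15–1000 g ai/ha with a flat-fan nozzle. Application was either pre-emergence, one day after sowing, or post-emergence at the 2–3 leaf stage.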

[3] = system: field corn (Zea mays L., var. Dekalb 535, CORN); experiment: Post-emerge test, crop safety; conditions: post-emerge, 14 days after application, rating scale 0-100
Outline: as §2

[4] = system: upland rice (Oryza sp., var. Tebonnet, RICE); experiment: Pre-emerge test, crop safety; conditions: crop damage rating 0-100, 14 days after application
Outline: as §1

[5] = system: field corn (Zea mays L., var. Dekalb 535, CORN); experiment: Pre-emerge test, crop safety; conditions: crop damage rating 0-100, 14 days after application
Outline: as §1

[6] = system: large crabgrass (Digitaria sanguinalis, DIGSA); experiment: Pre-emerge test, greenhouse herbicide activity screening; conditions: phytotoxicity rating 0-100, 14 days after application
From the text: (§3) A standard greenhouse herbicide activity screening system was used to evaluate the herbicidal efficacy and crop safety of these test compounds. Seven broadleaf weed species including redroot pigweed (Amaranthus retroflexus, AMARE, velvetleaf (Abutilon theophrasti, ABUTH), sicklepod (Cassia obtusifolia, CASOB), ivyleaf morningglory (Ipomoea hederacea, IPOHE), lambsquarters (Chenopodium album, CHEAL), common ragweed (Ambrosia artemisizfolia L., AMBEL), and cocklebur (Xanthium strumarium, XANST) were used as test species. Four grass weed species including green foxtail (Setaria viridis, SETVI), barnyardgrass (Echinochloa crus-galli, ECHCG), johnsongrass (Sorghum halepense, SORHA), and large crabgrass (Digitaria sanguinalis, DIGSA) were also used. In addition, three crop species, field corn (Zea mays L., var. Dekalb 535, CORN), soybean (Glycine max L., var. Pella 86, SOY), and is upland rice (Oryza sp., var. Tebonnet, RICE) were included.
(§4) All plants were grown in 10 cm square plastic pots which were filled with a sandy loam soil mix. For pre-emerge tests, seeds were planted one day prior to application of the test compounds. For post-emerge tests, seeds were planted 8-21 days prior to the test to allow emergence and good foliage development prior to application of the test substances. At the time of the post-emerge application, plants of all species were usually at the 2-3 leaf stage of development.
(§5) All test compounds Were dissolved in acetone and applied to the test units in a volume of 187 l /ha. Test materials were applied at rates ranging from 15 g ai/ha to 1000 g ai/ha using a track sprayer equipped with a TJ8001E even flow flat fan spray nozzle. Plants were arranged on a shelf so that the top of the canopy (post-emerge) or top of the soil surface (pre-emerge) was 40-45 cm below the nozzle. Pressurized air was used to force the test solution through the nozzle as it was mechanically advanced (via electrically driven chain drive) over the top of all test plants/pots. This application simulates a typical commercial field herbicide application.
(§6) In the post-emerge test, a commercial non-ionic surfactant was also included (0.25% v/v) to enhance wetting of the leaf surfaces of target plants. Immediately after application, test units of the pre-emerge applications were watered at the soil surface to incorporate the test materials. Subsequently, these test units were bottom-watered. Post-emerge test units were always bottom-watered.
(§7) At 14 days after application of the test materials, phytotoxicity ratings were recorded. A rating scale of 0-100 was used as previously described in Research Methods in Weed Science, 2nd edition, B. Truelove, Ed., Southern Weed Science Society, Auburn University, Auburn, Ala. 1977. Briefly, “0” corresponds to no damage and “100” corresponds to complete death of all plants in the test unit. This scale was used both to determine efficacy against weed species and damage to crop species. Herbicide activity data for various compounds of this invention, which are shown by compound No. in Tables 1-8, are shown in Tables 11 and 12.

[7] = system: green foxtail (Setaria viridis, SETVI); experiment: as above; conditions: phytotoxicity rating 0-100, 14 days after application
From the text: as §3, §4, §5, §6, §7

[8] = system: barnyardgrass (Echinochloa crus-galli, ECHCG); experiment: as above; conditions: phytotoxicity rating 0-100, 14 days after application
From the text: as §3, §4, §5, §6, §7

[9] = system: lambsquarters (Chenopodium album, CHEAL); experiment: as above; conditions: phytotoxicity rating 0-100, 14 days after application
From the text: as §3, §4, §5, §6, §7

[10] = system: sicklepod (Cassia obtusifolia, CASOB); experiment: as above; conditions: phytotoxicity rating 0-100, 14 days after application
From the text: as §3, §4, §5, §6, §7

[11] = system: velvetleaf (Abutilon theophrasti, ABUTH); experiment: as above; conditions: phytotoxicity rating 0-100, 14 days after application
From the text: as §3, §4, §5, §6, §7

[12] = system: ivyleaf morningglory (Ipomoea hederacea, IPOHE); experiment: as above; conditions: phytotoxicity rating 0-100, 14 days after application
From the text: as §3, §4, §5, §6, §7

[13] = system: large crabgrass (Digitaria sanguinalis, DIGSA); experiment: Post-emerge test, greenhouse herbicide activity screening; conditions: post-emerge, 14 days after application, rating scale 0-100
From the text: as §3, §4, §5, §6, §7

[14] = system: green foxtail (Setaria viridis, SETVI); experiment: as above; conditions: post-emerge, 14 days after application, rating scale 0-100
From the text: as §3, §4, §5, §6, §7

[15] = system: barnyardgrass (Echinochloa crus-galli, ECHCG); experiment: as above; conditions: post-emerge, 14 days after application, rating scale 0-100
From the text: as §3, §4, §5, §6, §7

[16] = system: redroot pigweed (Amaranthus retroflexus, AMARE); experiment: as above; conditions: post-emerge, 14 days after application
From the text: as §3, §4, §5, §6, §7

[17] = system: lambsquarters (Chenopodium album, CHEAL); experiment: as above; conditions: post-emerge, 14 days after application, rating scale 0-100
From the text: as §3, §4, §5, §6, §7

[18] = system: sicklepod (Cassia obtusifolia, CASOB); experiment: as above; conditions: post-emerge, 14 days after application, rating scale 0-100
From the text: as §3, §4, §5, §6, §7

[19] = system: velvetleaf (Abutilon theophrasti, ABUTH); experiment: as above; conditions: post-emerge, 14 days after application, rating scale 0-100
From the text: as §3, §4, §5, §6, §7

[20] = system: ivyleaf morningglory (Ipomoea hederacea, IPOHE); experiment: as above; conditions: post-emerge, 14 days after application, rating scale 0-100
From the text: as §3, §4, §5, §6, §7

[21] = 63 g ai/ha, rating scale 0-100 (0 no damage, 100 complete death)
[22] = 250 g ai/ha, rating scale 0-100

Row | Structure (SMILES) | Pre-emerge Herbicidal Activity AMARE ([1]; 63 g ai/ha) | Pre-emerge Herbicidal Activity AMARE ([1]; 250 g ai/ha) | phytotoxicity rating RICE (crop damage) ([2]; 63 g ai/ha) | phytotoxicity rating RICE (crop damage) ([2]; 250 g ai/ha) | phytotoxicity rating CORN (crop damage) ([3]; 63 g ai/ha) | phytotoxicity rating CORN (crop damage) ([3]; 250 g ai/ha) | Pre-emerge Herbicidal Activity RICE ([4]; 63 g ai/ha) | Pre-emerge Herbicidal Activity RICE ([4]; 250 g ai/ha) | Pre-emerge Herbicidal Activity CORN ([5]; 63 g ai/ha) | Pre-emerge Herbicidal Activity CORN ([5]; 250 g ai/ha) | Pre-emerge Herbicidal Activity DIGSA ([6]; 63 g ai/ha) | Pre-emerge Herbicidal Activity DIGSA ([6]; 250 g ai/ha) | Pre-emerge Herbicidal Activity SETVI ([7]; 63 g ai/ha) | Pre-emerge Herbicidal Activity SETVI ([7]; 250 g ai/ha) | Pre-emerge Herbicidal Activity ECHCG ([8]; 63 g ai/ha) | Pre-emerge Herbicidal Activity ECHCG ([8]; 250 g ai/ha) | Pre-emerge Herbicidal Activity CHEAL ([9]; 63 g ai/ha) | Pre-emerge Herbicidal Activity CHEAL ([9]; 250 g ai/ha) | Pre-emerge Herbicidal Activity CASOB ([10]; 63 g ai/ha) | Pre-emerge Herbicidal Activity CASOB ([10]; 250 g ai/ha) | also measured
1 | COc1c(Cl)cc(F)c(-n2c(=O)cc(C(F)(F)F)n(C)c2=O)c1NC(=O)OCc1ccc(C(C)C)cc1 [4-42] | 30 | 90 | 0 | 0 | 0 | 0 | 0 | 0 | 0 | 0 | 10 | 60 | 30 | 100 | 0 | 40 | 40 | 100 | 0 | 100 | Pre-emerge Herbicidal Activity ABUTH ([11]; 63 g ai/ha): 60; Pre-emerge Herbicidal Activity ABUTH ([11]; 250 g ai/ha): 100; Pre-emerge Herbicidal Activity IPOHE ([12]; 63 g ai/ha): 0; Pre-emerge Herbicidal Activity IPOHE ([12]; 250 g ai/ha): 40; phytotoxicity rating DIGSA ([13]; 63 g ai/ha): 0; phytotoxicity rating DIGSA ([13]; 250 g ai/ha): 0; phytotoxicity rating SETVI ([14]; 63 g ai/ha): 0; phytotoxicity rating SETVI ([14]; 250 g ai/ha): 0; phytotoxicity rating ECHCG ([15]; 63 g ai/ha): 0; phytotoxicity rating ECHCG ([15]; 250 g ai/ha): 10; phytotoxicity rating AMARE [16, 21]: 75; phytotoxicity rating AMARE [16, 22]: 100; phytotoxicity rating CHEAL ([17]; 63 g ai/ha): 80; phytotoxicity rating CHEAL ([17]; 250 g ai/ha): 90; phytotoxicity rating CASOB ([18]; 63 g ai/ha): 0; phytotoxicity rating CASOB ([18]; 250 g ai/ha): 0; phytotoxicity rating ABUTH ([19]; 63 g ai/ha): 100; phytotoxicity rating ABUTH ([19]; 250 g ai/ha): 100; phytotoxicity rating IPOHE ([20]; 63 g ai/ha): 40; phytotoxicity rating IPOHE ([20]; 250 g ai/ha): 30
2 | COc1c(Cl)cc(F)c(-n2c(=O)cc(C(F)(F)F)n(C)c2=O)c1NC(=O)OCc1ccc(C(F)(F)F)cc1 [4-43] | 10 | 60 | 0 | 0 | 0 | 10 | 0 | 10 | 0 | 0 | 0 | 60 | 0 | 70 | 0 | 10 | 30 | 80 | 0 | 40 | Pre-emerge Herbicidal Activity ABUTH ([11]; 63 g ai/ha): 20; Pre-emerge Herbicidal Activity ABUTH ([11]; 250 g ai/ha): 50; Pre-emerge Herbicidal Activity IPOHE ([12]; 63 g ai/ha): 0; Pre-emerge Herbicidal Activity IPOHE ([12]; 250 g ai/ha): 10; phytotoxicity rating DIGSA ([13]; 63 g ai/ha): 0; phytotoxicity rating DIGSA ([13]; 250 g ai/ha): 0; phytotoxicity rating SETVI ([14]; 63 g ai/ha): 0; phytotoxicity rating SETVI ([14]; 250 g ai/ha): 40; phytotoxicity rating ECHCG ([15]; 63 g ai/ha): 0; phytotoxicity rating ECHCG ([15]; 250 g ai/ha): 10; phytotoxicity rating AMARE [16, 21]: 70; phytotoxicity rating AMARE [16, 22]: 100; phytotoxicity rating CHEAL ([17]; 63 g ai/ha): 80; phytotoxicity rating CHEAL ([17]; 250 g ai/ha): 90; phytotoxicity rating CASOB ([18]; 63 g ai/ha): 50; phytotoxicity rating CASOB ([18]; 250 g ai/ha): 60; phytotoxicity rating ABUTH ([19]; 63 g ai/ha): 60; phytotoxicity rating ABUTH ([19]; 250 g ai/ha): 100; phytotoxicity rating IPOHE ([20]; 63 g ai/ha): 40; phytotoxicity rating IPOHE ([20]; 250 g ai/ha): 40
